Laboratory results as given in article PMC6297231 (Nature Communications, 2018).
Read-outs that look alike come from different tables or passages of the source.

Legend:
MV4-11 tumors = assay: MV4-11 subcutaneous mouse xenograft efficacy; format: in vivo, mice; details: for tumor regression (TR): transient
Procedure: Female C.B.-17 SCID mice and female nude rats were purchased from Charles River Laboratories. […]. All xenograft studies were conducted at our Association for the Assessment and Accreditation of Laboratory Animal Care accredited facility in Waltham, MA in accordance with ethical regulations described in the guidelines established by the internal Institutional Animal Care and Use Committee. […]. In mice, drugs were dosed intravenously in a volume of 5 mL kg^-1 except for venetoclax that was dosed orally in a volume of 10 mL kg^-1. […]. Ten million MV4-11 cells were injected subcutaneously in the right flank of rats in a volume of 0.1 mL. Tumor volumes (measured by caliper), animal body weight, and tumor condition were recorded twice weekly for the duration of the study. The tumor volume was calculated using the formula: length (mm) × width (mm)^2[…]. For efficacy studies, growth inhibition from the start of treatment was assessed by comparison of the differences in tumor volume between control and treated groups. Statistical significance was evaluated using non-parametric, unpaired, two-tailed t-test. For efficacy studies, animals were randomized based on tumor volumes using stratified sampling, and enrolled into control and treatment groups. Dosing began when mean tumor size reached ~230 mm^3 in mice and 900 mm^3 in rats. Mice were euthanized once tumor size reached 2000 mm^3. Mice were excluded from the study upon body weight loss > 10% of the body weight at the initiation of the study. For pharmacokinetic analysis, plasma samples were precipitated and diluted with acetonitrile containing internal standard and analyzed by LC–MS/MS versus a calibration curve of known concentrations.

MOLM-13 leukemic cells = assay: MOLM-13 disseminated AML model; format: in vivo, mice; details: venetoclax 100 mg kg^−1 p.o. daily, AZD5991 60 mg kg^−1 i.v. weekly, after 10 days
Description: MOLM-13: These studies complied with all relevant ethical regulations described in the guidelines established by GV-SOLAS Institutional Animal Care and Use Committee. Female CIEA-NOG mice were purchased from Taconic. Mice between 5 and 8 weeks old were tail vein injected with five million MOLM-13 cells. Treatment started 3 days after implantation. AZD5991, venetoclax, and vehicle were formulated and administered as mentioned above. Bone marrow and peripheral blood were collected 10 days post-treatment initiation, followed by red cell lysis (ACK lysis buffer), washes with FC buffer (PBS + 2% FCS) and cell staining with AquaZombie live/dead stain (cat#423102, Biolegend) containing antibodies against human CD45 (cat#564105, BDBiosciences) and human HLA-ABC (cat#561346, BDBiosciences) or isotype controls (mIgG1 cat#552834, BDBiosciences; mIgG1 cat#561504, BDBiosciences). Samples were washed with FC buffer and data acquired on an Attune NXT cytometer and analyzed using FlowJo software. Gating was performed on single/live/FCS vs. SSC/HLA-ABC vs. hCD45 double positive cells (Supplementary Figure 8).

L363 = assay: Cell viability assay; format: cell-based; details: Homo sapiens, L-363, 24 h; L363 (MM); read-out: AZD5991 24h GI50
Procedure: (§1) Cells were plated at 3000 cells/well in 384-well white plates in corresponding cell growth media. […] Caspase-3/7 activation was subsequently determined using a Caspase-Glo 3/7 Reagent (Promega) and viability was assayed using the CellTiter-Glo Reagent (Promega) as described in manufacturer’s instructions. Dose–response curves for caspase-3/7 activation and viability were plotted and analyzed (including EC50 and GI50 determination) using GraphPad Prism.

ARH77 = assay: Cell viability assay; format: cell-based; details: Homo sapiens, ARH-77, 24 h; ARH77 (MM); read-out: AZD5991 24h GI50
Procedure: as §1

Kasumi1 = assay: Cell viability assay; format: cell-based; details: Homo sapiens, Kasumi 1, 24 h; Kasumi1 (AML); read-out: AZD5991 24h GI50
Procedure: as §1

Kasumi3 = assay: Cell viability assay; format: cell-based; details: Kasumi-3, 24 h; Kasumi3 (AML); read-out: AZD5991 24h GI50
Procedure: as §1

OCIAML5 = assay: Cell viability assay; format: cell-based; details: Homo sapiens, OCI-AML-5, 24 h, read-out: AZD5991 24h GI50
Procedure: as §1

JEKO1 = assay: Cell viability assay; format: cell-based; details: Homo sapiens, JeKo-1, 24 h; JEKO1 (NHL); read-out: AZD5991 24h GI50
Procedure: as §1

OCILY10 = assay: Cell viability assay; format: cell-based; details: Homo sapiens, OCI-Ly10, 24 h; OCILY10 (NHL); read-out: AZD5991 24h GI50
Procedure: as §1

Pfeiffer = assay: Cell viability assay; format: cell-based; details: Homo sapiens, 24 h; Pfeiffer (NHL); read-out: AZD5991 24h GI50
Procedure: as §1

RCK8 = assay: Cell viability assay; format: cell-based; details: Homo sapiens, 24 h; RCK8 (NHL); read-out: AZD5991 24h GI50
Procedure: as §1

VAL = assay: Cell viability assay; format: cell-based; details: 24 h; VAL (NHL); read-out: AZD5991 24h GI50
Procedure: as §1

Will2 = assay: Cell viability assay; format: cell-based; details: 24 h; Will2 (NHL); read-out: AZD5991 24h GI50
Procedure: as §1

Calu1 = assay: Cell viability assay; format: cell-based; details: Homo sapiens, Calu-1, 24 h; Calu1 (Lung); read-out: AZD5991 24h GI50
Procedure: as §1

H1048 = assay: Cell viability assay; format: cell-based; details: Homo sapiens, NCI-H1048, 24 h; H1048 (Lung); read-out: AZD5991 24h GI50
Procedure: as §1

H358 = assay: Cell viability assay; format: cell-based; details: Homo sapiens, NCI-H358, 24 h; H358 (Lung); read-out: AZD5991 24h GI50
Procedure: as §1

BT20 = assay: Cell viability assay; format: cell-based; details: Homo sapiens, BT-20, 24 h; BT20 (Breast); read-out: AZD5991 24h GI50
Procedure: as §1

MDAMB468 = assay: Cell viability assay; format: cell-based; details: Homo sapiens, MDA-MB-468, 24 h; MDAMB468 (Breast); read-out: AZD5991 24h GI50
Procedure: as §1

GIST T1 = assay: Cell viability assay; format: cell-based; details: Homo sapiens, GISTT1, 24 h; GIST T1 (GI); read-out: AZD5991 24h GI50
Procedure: as §1

OCIM1 = assay: Caspase-3/7 activation assay; format: cell-based; details: OCI-M1, 6 h
Procedure: as §1

Cc1c2c(nn1C)CSCc1cc(n(C)n1)CSc1cc(c3ccccc3c1)OCCCc1c(C(=O)O)n(C)c3c-2c(Cl)ccc13 (atropisomer, axis not shown; (Ra)) [(Ra)-7]
tumor regression (TR) (MV4-11 tumors; single i.v. dose 10 mg kg^−1, 7 days after treatment): 66%
tumor regression (TR) (MV4-11 tumors; single i.v. dose 30 mg kg^−1, 7 days after treatment): 93%
mice with complete TR (MV4-11 tumors; single i.v. dose 100 mg kg^−1): six out of six
percentage of HLA-ABC+ hCD45+ leukemic cells in peripheral blood vs. vehicle (MOLM-13 leukemic cells): significantly reduced
percentage of leukemic cells in bone marrow (MOLM-13 leukemic cells): reduced
GI50 (L363): 75 nM
GI50 (ARH77): 18.2 µM
GI50 (Kasumi1): 133 nM
GI50 (Kasumi3): 172 nM
GI50 (OCIAML5): 11 µM
GI50 (JEKO1): 452 nM
GI50 (OCILY10): 119 nM
GI50 (Pfeiffer): 3.37 µM
GI50 (RCK8): > 30 µM
GI50 (VAL): 102 nM
GI50 (Will2): 43 nM
GI50 (Calu1): > 30 µM
GI50 (H1048): 4.25 µM
GI50 (H358): 4.24 µM
GI50 (BT20): 4.63 µM
GI50 (MDAMB468): 540 nM
GI50 (GIST T1): > 30 µM
EC50 (OCIM1; read-out: 6h caspase EC50, OCIM1, single agent): > 0.333 µM
EC50 (OCIM1; read-out: AZD5991 6h EC50, OCIM1 (AML), caspase 3/7 activation): > 30 µM
